Consider 28 molecules from patent US20090209536A1, “AMINOQUINAZOLINE CANNABINOID RECEPTOR MODULATORS FOR TREATMENT OF DISEASE” (KALYPSYS, INC., priority 2007, published 2009).

Where two headings read alike, the source gives them in different places. Some results are limits rather than exact numbers.

Assay [1] has as its target T1, human cannabinoid receptor type 2 (Homo sapiens, UniProt P34972).
T1 construct: expressed in transfected cells; membrane preparation
The assay is described as follows: Human CB2 Radioligand Binding Assay. The conditions noted are these: membranes from stably transfected CHO CB2 cells. The procedure, abridged:
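Test compounds (10 uM final, or dose-response) competed with [3H]CP-55,940, used at the Kd determined per membrane lot, for binding to stable human CB2-CHO membranes over 90 min at 30° C in pH 7.4 Tris/EGTA/MgCl2/BSA buffer. GF/C filtration then scintillation counting; 100 nM CP-55,940 defined 100% efficacy.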

In assay [2] the target is T2, human cannabinoid receptor type 1 (Homo sapiens, UniProt P21554).
T2 construct: purchased Perkin Elmer RBHCB1M; host or cells: HEK 293 EBNA cells
Put plainly: Human CB1 Radioligand Binding Assay (basis of selectivity, CB2 vs. CB1). Conditions: CB1: HEK 293 EBNA cells expressing human CB1; CB2: CHO CB2 membranes. How it is done:
2. Human CB1 Radioligand Binding Assay
The incubation buffer was composed of 50 mM Tris-HCl pH 7.4, 2.5 mM EDTA, 5 mM MgCl2, 5.0 mg/ml fatty acid free BSA and the wash buffer was composed of 50 mM Tris-HCl pH 7.4, 2.5 mM EDTA, 5 mM MgCl2, 0.5 mg/ml fatty acid free BSA.

Where [3] appears, read: competition with [3H] CP-55,940, read-out: CB2 Ligand Binding Asssay EC50.
The mark [4] stands for this setting: CB2 Ligand Binding Asssay EC50, competition with [3H] CP-55,940.

T2 sequence (P21554 whole entry): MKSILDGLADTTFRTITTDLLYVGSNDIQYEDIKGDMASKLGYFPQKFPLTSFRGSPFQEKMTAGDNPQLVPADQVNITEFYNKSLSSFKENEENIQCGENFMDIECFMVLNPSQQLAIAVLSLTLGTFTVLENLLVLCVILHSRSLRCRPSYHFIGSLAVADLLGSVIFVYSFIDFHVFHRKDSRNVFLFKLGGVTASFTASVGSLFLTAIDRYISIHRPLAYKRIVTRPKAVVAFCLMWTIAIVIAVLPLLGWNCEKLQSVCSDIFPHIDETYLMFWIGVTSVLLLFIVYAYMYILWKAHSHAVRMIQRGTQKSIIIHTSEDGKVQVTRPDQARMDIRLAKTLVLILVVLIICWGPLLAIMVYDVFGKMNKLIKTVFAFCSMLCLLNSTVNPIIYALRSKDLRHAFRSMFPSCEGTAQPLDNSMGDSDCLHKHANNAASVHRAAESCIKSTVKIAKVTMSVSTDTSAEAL
T1 sequence (P34972 whole entry): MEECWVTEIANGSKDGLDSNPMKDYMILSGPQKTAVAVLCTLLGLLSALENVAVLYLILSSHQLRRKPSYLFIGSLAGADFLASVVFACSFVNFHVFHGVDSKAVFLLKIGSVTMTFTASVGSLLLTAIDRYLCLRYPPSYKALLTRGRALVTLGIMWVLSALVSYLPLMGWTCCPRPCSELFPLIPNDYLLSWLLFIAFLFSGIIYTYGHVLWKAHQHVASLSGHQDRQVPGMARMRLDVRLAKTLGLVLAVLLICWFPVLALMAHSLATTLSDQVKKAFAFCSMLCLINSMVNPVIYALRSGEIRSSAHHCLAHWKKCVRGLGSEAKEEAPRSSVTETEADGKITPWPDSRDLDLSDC

Take `O=S(=O)(NCc1nc(N2CCOCC2)c2ccccc2n1)c1cccc2ccccc12` [Example 300, N-((4-Morpholinoquinazolin-2-yl)methyl)naphthalene-1-sulfonamide]: the EC50 in assay [1] (setting [3]) was less than 1000 nM. The “Selectivity, CB2 vs. CB1” value in assay [2] is “+ (+ indicates > 10−fold)”.
In the case of `O=S(=O)(NCc1nc(N2CCOCC2)c2ccccc2n1)c1ccc2ccccc2c1` [Example 301, N-((4-Morpholinoquinazolin-2-yl)methyl)naphthalene-2-sulfonamide], in assay [1] (setting [4]), the EC50 is more than 1000 nM. In assay [2], the “Selectivity, CB2 vs. CB1” value was “− (− indicates ≦ 10−fold)”.
Regarding `O=S(=O)(NCc1nc(Nc2ccccc2)c2ccccc2n1)c1cccc2ccccc12` [Example 302, N-((4-(Phenylamino)quinazolin-2-yl)methyl)naphthalene-1-sulfonamide], the EC50 in assay [1] (setting [3]) was more than 1000 nM. Moreover, the “Selectivity, CB2 vs. CB1” value in assay [2] was “− (− indicates ≦ 10−fold)”.
Turning to `c1ccc(NCc2nc(Nc3ccccc3)c3ccccc3n2)cc1` [Example 303, N-Phenyl-2-((phenylamino)methyl)quinazolin-4-amine], in assay [1] (setting [3]), the EC50 was more than 1000 nM. Moreover, the “Selectivity, CB2 vs. CB1” value in assay [2] is given as “− (− indicates ≦ 10−fold)”.
Consider `CC(C)Nc1nc(CNS(=O)(=O)c2cccc3ccccc23)nc2ccccc12` [Example 304, N-((4-(Isopropylamino)quinazolin-2-yl)methyl)naphthalene-1-sulfonamide], for which the EC50 in assay [1] (setting [3]) is less than 1000 nM. Further, the “Selectivity, CB2 vs. CB1” value in assay [2] is “− (− indicates ≦ 10−fold)”.
For `O=S(=O)(NCc1nc(NC2CCCC2)c2ccccc2n1)c1cccc2ccccc12` [Example 305, N-((4-(Cyclopentylamino)quinazolin-2-yl)methyl)naphthalene-1-sulfonamide], in assay [1] (setting [3]), the EC50 was less than 1000 nM. In addition, the “Selectivity, CB2 vs. CB1” value in assay [2] was “− (− indicates ≦ 10−fold)”.
The like results for `COc1cc2nc(CNS(=O)(=O)c3cccc4ccccc34)nc(N3CCCC3)c2cc1OC` [Example 307, N-((6,7-Dimethoxy-4-(pyrrolidin-1-yl)quinazolin-2-yl)methyl)naphthalene-1-sulfonamide] were, in that order, less than 1000 nM and “− (− indicates ≦ 10−fold)”.
`O=S(=O)(NCc1nc(N2Cc3ccccc3C2)c2ccccc2n1)c1cccc2ccccc12` [Example 308, N-((4-(isoindolin-2-yl)quinazolin-2-yl)methyl)naphthalene-1-sulfonamide]: in assay [1] (setting [3]), the EC50 was less than 1000 nM. The “Selectivity, CB2 vs. CB1” value in assay [2] is on record as “− (− indicates ≦ 10−fold)”.
In the case of `O=S(=O)(NCc1nc(N2CCCC2)c2ccc(Cl)cc2n1)c1cccc2ccccc12` [Example 309, N-((7-Chloro-4-(pyrrolidin-1-yl)quinazolin-2-yl)methyl)naphthalene-1-sulfonamide], in assay [1] (setting [3]), the EC50 is less than 1000 nM. Also, the “Selectivity, CB2 vs. CB1” value in assay [2] was “+ (+ indicates > 10−fold)”.
As to `COC(=O)c1ccc2nc(-c3ccccc3Cl)nc(N3CCN(C)CC3)c2c1` [Example 310, Methyl 2-(2-chlorophenyl)-4-(4-methylpiperazin-1-yl)quinazoline-6-carboxylate], the EC50 in assay [1] (setting [3]) was less than 1000 nM. In addition, in assay [2], the “Selectivity, CB2 vs. CB1” value is recorded as “− (− indicates ≦ 10−fold)”.
Turning to `CCN(CC)C(=O)c1ccc2nc(-c3ccccc3Cl)nc(N3CCN(C)CC3)c2c1` [Example 311, 2-(2-Chlorophenyl)-N,N-diethyl-4-(4-methylpiperazin-1-yl)quinazoline-6-carboxamide], the EC50 in assay [1] (setting [3]) is less than 1000 nM. Also, in assay [2], the “Selectivity, CB2 vs. CB1” value is recorded as “+ (+ indicates > 10−fold)”.
Regarding `CC1CCN(c2nc(-c3ccccc3Cl)nc3ccc(C(=O)NC4CCCCC4)cc23)CC1` [Example 312, 2-(2-Chlorophenyl)-N-cyclohexyl-4-(4-methylpiperidin-1-yl)quinazoline-6-carboxamide], the EC50 in assay [1] (setting [3]) is less than 1000 nM. The “Selectivity, CB2 vs. CB1” value in assay [2] is “− (− indicates ≦ 10−fold)”.
As for `COc1ccc(CNC(=O)c2ccc3nc(-c4ccccc4Cl)nc(N4CCC(C)CC4)c3c2)cc1` [Example 313, 2-(2-Chlorophenyl)-N-(4-methoxybenzyl)-4-(4-methylpiperidin-1-yl)quinazoline-6-carboxamide], the EC50 in assay [1] (setting [3]) is less than 1000 nM. For the same molecule, the “Selectivity, CB2 vs. CB1” value in assay [2] is recorded as “− (− indicates ≦ 10−fold)”.
Take `CCOC(=O)N1CCN(c2nc(-c3ccccc3Cl)nc3ccc(C(=O)N(CC)CC)cc23)CC1` [Example 314, Ethyl 4-(2-(2-chlorophenyl)-6-(diethylcarbamoyl)quinazolin-4-yl)piperazine-1-carboxylate]: the EC50 in assay [1] (setting [3]) was more than 1000 nM. In addition, in assay [2], the “Selectivity, CB2 vs. CB1” value is listed as “+ (+ indicates > 10−fold)”.
`CCN(CC)C(=O)c1ccc2nc(-c3ccccc3Cl)nc(N3CCOCC3)c2c1` [Example 315, 2-(2-Chlorophenyl)-N,N-diethyl-4-morpholinoquinazoline-6-carboxamide] gave an EC50 in assay [1] (setting [4]) of more than 1000 nM. Also, the “Selectivity, CB2 vs. CB1” value in assay [2] was “− (− indicates ≦ 10−fold)”.
Turning to `CCN(CC)C(=O)c1ccc2nc(-c3ccccc3Cl)nc(N3CCN(C(C)=O)CC3)c2c1` [Example 316, 4-(4-Acetylpiperazin-1-yl)-2-(2-chlorophenyl)-N,N-diethylquinazoline-6-carboxamide], in assay [1] (setting [3]), the EC50 was less than 1000 nM. Also, in assay [2], the “Selectivity, CB2 vs. CB1” value is on record as “+ (+ indicates > 10−fold)”.
For the molecule `CCOC(=O)N1CCN(c2nc(-c3ccccc3Cl)nc3cc(C(=O)OC)ccc23)CC1` [Example 317, Methyl 2-(2-chlorophenyl)-4-(4-(ethoxycarbonyl)piperazin-1-yl)quinazoline-7-carboxylate], the EC50 in assay [1] (setting [3]) was more than 1000 nM. The “Selectivity, CB2 vs. CB1” value in assay [2] is “− (− indicates ≦ 10−fold)”.
`CCOC(=O)N1CCN(c2nc(-c3ccccc3Cl)nc3cc(C(=O)O)ccc23)CC1` [Example 318, 2-(2-Chlorophenyl)-4-(4-(ethoxycarbonyl)piperazin-1-yl)quinazoline-7-carboxylic acid]: in assay [1] (setting [3]), the EC50 is more than 1000 nM. In addition, the “Selectivity, CB2 vs. CB1” value in assay [2] was “− (− indicates ≦ 10−fold)”.
Regarding `CCOC(=O)N1CCN(c2nc(-c3ccccc3Cl)nc3cc(C(=O)NC(C)C)ccc23)CC1` [Example 320, Ethyl 4-(2-(2-chlorophenyl)-7-(isopropylcarbamoyl)quinazolin-4-yl)piperazine-1-carboxylate], the EC50 in assay [1] (setting [3]) is more than 1000 nM. For the same molecule, the “Selectivity, CB2 vs. CB1” value in assay [2] is “− (− indicates ≦ 10−fold)”.
On to `CCOC(=O)N1CCN(c2nc(-c3ccccc3Cl)nc3cc(C(=O)NC)ccc23)CC1` [Example 321, Ethyl 4-(2-(2-chlorophenyl)-7-(methylcarbamoyl)quinazolin-4-yl)piperazine-1-carboxylate], for which, in assay [1] (setting [3]), the EC50 is more than 1000 nM. Besides, in assay [2], the “Selectivity, CB2 vs. CB1” value is on record as “− (− indicates ≦ 10−fold)”.
Molecule `COC(=O)c1ccc2c(N3CCN(C(C)=O)CC3)nc(-c3ccccc3Cl)nc2c1` [Example 322, Methyl 4-(4-acetylpiperazin-1-yl)-2-(2-chlorophenyl)quinazoline-7-carboxylate] had an EC50 in assay [1] (setting [4]) of more than 1000 nM. The “Selectivity, CB2 vs. CB1” value in assay [2] was “− (− indicates ≦ 10−fold)”.
With `CCN(CC)C(=O)c1ccc2c(N3CCN(C(C)=O)CC3)nc(-c3ccccc3Cl)nc2c1` [Example 323, 4-(4-Acetylpiperazin-1-yl)-2-(2-chlorophenyl)-N,N-diethylquinazoline-7-carboxamide], in assay [1] (setting [3]), the EC50 was more than 1000 nM. Further, the “Selectivity, CB2 vs. CB1” value in assay [2] is listed as “− (− indicates ≦ 10−fold)”.
Consider `CC(=O)N1CCN(c2nc(-c3ccccc3Cl)nc3cc(C(=O)N4CCCCC4)ccc23)CC1` [Example 324, 1-(4-(2-(2-Chlorophenyl)-7-(piperidine-1-carbonyl)quinazolin-4-yl)piperazin-1-yl)ethanone], for which the EC50 in assay [1] (setting [3]) is more than 1000 nM. For the same molecule, the “Selectivity, CB2 vs. CB1” value in assay [2] is reported as “− (− indicates ≦ 10−fold)”.
The matching figures for `COc1ccc(CNC(=O)c2ccc3c(N4CCN(C(C)=O)CC4)nc(-c4ccccc4Cl)nc3c2)cc1` [Example 325, 4-(4-Acetylpiperazin-1-yl)-2-(2-chlorophenyl)-N-(4-methoxybenzyl)quinazoline-7-carboxamide]: more than 1000 nM and “− (− indicates ≦ 10−fold)”.
On to `COC(=O)c1ccc2nc(-c3ccccc3Cl)nc(Nc3cccc(OC(F)(F)F)c3)c2c1` [Example 326, Methyl 2-(2-chlorophenyl)-4-(3-(trifluoromethoxy)phenylamino)quinazoline-6-carboxylate], for which the concentration giving a half-maximal response (EC50) in assay [1] (setting [3]) is more than 1000 nM. The “Selectivity, CB2 vs. CB1” value in assay [2] is reported as “− (− indicates ≦ 10−fold)”.
In the case of `COC(=O)c1ccc2nc(-c3ccccc3Cl)nc(Nc3cccc(OC(C)C)c3)c2c1` [Example 327, Methyl 2-(2-chlorophenyl)-4-(3-isopropoxyphenylamino)quinazoline-6-carboxylate], the EC50 in assay [1] (setting [3]) is more than 1000 nM. Moreover, in assay [2], the “Selectivity, CB2 vs. CB1” value is listed as “− (− indicates ≦ 10−fold)”.
The matching figures for `COC(=O)c1ccc2nc(-c3ccccc3Cl)nc(Nc3cc(OC)cc(OC)c3)c2c1` [Example 328, Methyl 2-(2-chlorophenyl)-4-(3,5-dimethoxyphenylamino)quinazoline-6-carboxylate]: more than 1000 nM and “− (− indicates ≦ 10−fold)”.
The like results for `COC(=O)c1ccc2nc(-c3ccccc3Cl)nc(N3CCc4cc(OC)ccc43)c2c1` [Example 330, Methyl 2-(2-chlorophenyl)-4-(5-methoxyindolin-1-yl)quinazoline-6-carboxylate] were, in that order, more than 1000 nM and “− (− indicates ≦ 10−fold)”.
